From US20260335323A1, “CHIMERIC MOLECULE” (UCL Business Ltd, priority 2023, published 2026)

What was measured:
[1] = system: SH-SY5Y cells; test: mito-mKeima mitophagy assay (mitophagy index); format: cell-based, human; conditions: for enhancement of mitophagy: co-treating with excess TSPO ligand
Experimental: (§1) FIG. 1. The structure of AUTAC-4 is shown in (A). (B) Representative images of SH-SY5Y cells stably expressing the mito-mKeima reporter treated with AUTAC4 for 18 h. Nuclei were stained with Hoechst 33342, healthy mitochondria are shown in green and mitochondria in lysosomes are shown in red. (C-E) Fold change in mitophagy index over time after treatment with increasing concentrations of AUTAC4 under treatment with DMSO (C), 3 mM CCCP (D) or 0.1/0.1 mM antimycin/oligomycin (E), also for 18 h. (F) Quantification of changes in mitochondrial membrane potential over time (DYm) by measuring the TMRM relative fluorescence intensity (RFI) treated with DMSO, 10 mM CCCP, 10 mM and 20 mM AUTAC4. Normalised to number of nuclei. (G) Representative western blot of SH-SY5Y cells treated with DMSO, 10 mM AUTAC4 or 10 mM AUTAC4+0.1/0.1 mM antimycin/oligomycin for 18 h and, probed for p62, b-actin and Tom20. Quantifications of western blot for changes in Tom20 and p62 levels shown in (H) and (I), respectively. (J) Representative images of PANC-1 cells stably expressing the mCherry-EGFP-LC3 tandem reporter. Nuclei stained with Hoechst 33342, autophagosomes are shown in the EGFP channel and autolysosomes in the mCherry channel. Fold change in the number of autophagosome (K) and autolysosome (L) puncta in AUTAC4 treated cells. All data shown are mean±SEM, n=3, *p<0.05, *** p<0.001. For mito-mKeima experiments, statistics were calculated by Two-way ANOVA with Tukey's multiple comparisons test. For western blots, TMRM and LC3 tandem reporter assay, statistics were calculated with one-way ANOVA with Tukey's multiple comparisons test.
FIG. 5. ULKTACs induce potent mitophagy after colocalisation and local activation of ULK1 at mitochondria (A) Representative immunofluorescence of PANC-1 cells treated with CCCP, ULKTACs or both and immunostained for TOM20 and ULK1 and counterstained with Alexa 488 and 568, respectively. Nuclei stained with Hoechst 33342. (B) Quantification of the colocalised ULK1 to TOM20 spot area of PANC-1 cells treated with DMSO, 5 mM CCCP, 10 mM BL-918, 10 mM BL-918+5 mM CCCP, […] NZ-65, […] NZ-65+5 mM CCCP, […] NZ-66, […] NZ-66+5 mM CCCP, 50 mM TSPO ligand, […] NZ-65+50 mM TSPO ligand, […] NZ-66+50 mM TSPO ligand. (C) Western blot of SH-SY5Y cells treated with 1 mM ULKTACs, 5 mM CCCP or both, probed for Mfn2, b-Actin and Tom20—quantifications are shown in (D) for Mfn2, normalised to Actin. (E) Representative images of SH-SY5Y cells stably expressing the mito-mKeima reporter treated with 3 mM CCCP, NZ-65 or both. Nuclei were stained with Hoechst 33342, healthy mitochondria are shown in green and mitochondria in lysosomes are shown in red. Fold change in mitophagy index over time after treatment for the indicated timepoints with title treatments alone or co-treated with 1.25 mM ULKTAC or 10 mM ULKTAC NZ-65 (F) or NZ-66 (G). Fold change in mitophagy index over time after treatment for the indicated timepoints with DMSO, 1.25 µM NZ-65 or NZ-66±50 µM TSPO ligand under co-treatment with DMSO (H) or 3 μM CCCP (I). […] Normalised to number of nuclei. All data shown are mean±SEM, n=3, *p<0.05, ** p<0.01, *** p<0.001. For colocalisation and TMRM experiments, one-way ANOVA with Dunnett's multiple comparisons test. For western blots, one-way ANOVA with Tukey's multiple comparisons test and unpaired t-test. For mito-mKeima experiment, two-way ANOVA with Tukey's multiple comparisons test.
SH-SY5Y stably expressing mito-mKeima were produced as previously described28,29. Cells were seeded in 384 well CellCarrier Ultra plates (PerkinElmer) 24 hours before treatment in complete media without phenol red. Cells were treated with increasing concentrations of BL-918, AUTAC4, NZ-65 or NZ-66, 24 hours prior to treatment with increasing concentrations of mitochondrial uncouplers to cause mitochondrial insult. SH-SY5Y mitochondria were treated with DMSO, 3 μM CCCP, 10 μM CCCP, 0.1/0.1 μM antimycin/oligomycin (AO), 0.5/0.5 µM AO or 1/1 μM AO. […]

[2] = system: PANC-1 cells; test: mCherry-EGFP-LC3 tandem reporter assay, autophagosomes/autolysosomes; format: cell-based, human; conditions: for autophagic flux: bafilomycin A1 co-treatment; for enhanced number of mCherry puncta: co-treatment with bafilomycin A1; for fold increase in number of mCherry puncta: mCherry puncta (autolysosomes); for fold increase in number of EGFP puncta: panc-1 cells
Experimental: as §1
FIG. 2. BL-918 is a potent ULK1 agonist and autophagy inducer (A) Representative images of PANC-1 cells stably expressing the mCherry-EGFP-LC3 tandem reporter treated with ULK1 agonists. Nuclei stained with Hoechst 33342, autophagosomes are shown in the EGFP channel and autolysosomes in the mCherry channel. Fold change in the number of autophagosomes (B) and autolysosomes (C) puncta in ULK1 agonist treated cells. (D) Western blot of PANC-1 cells treated with DMSO, bafilomycin and ULK1 agonists±bafilomycin; probed for p-ULK1 (S317), ULK1, p62, b-actin, LC3-I and LC3-II. Quantifications of western blot for changes in the ratio of p-ULK1 (S317):ULK1 (E), p62 (F) and LC31:LC3II (G). All data shown are mean±SEM, n=3, *p<0.05, ** p<0.01, one-way ANOVA with Dunnett's multiple comparisons test.
FIG. 4. ULKTACs retain ULK1 agonist activity and subsequent induction of autophagy (A) Western blot of PANC-1 cells treated with ULKTACs±bafilomycin, probed for p-ULK1 (S317), ULK1, p62, b-Actin, LC31 and LC3II. Quantifications of (A) for the pULK1:ULK1 ratio (B) LC3I:LC3II ratio (C) and changes in p62 (D). (E) Representative images of PANC-1 cells stably expressing the mCherry-EGFP-LC3 tandem reporter treated with ULKTACs w/or w/o bafilomycin. Nuclei stained with Hoechst 33342, autophagosomes are shown in the EGFP channel and autolysosomes in the mCherry channel. Fold change in the number of autophagosome (F) and autolysosome (G) puncta. Data shown are mean±SEM, *p<0.05, ** p<0.01, *** p<0.001, one-way ANOVA, Dunnett's multiple comparisons test.
PANC-1 and A549 cells were separately seeded at a medium density in 24-well plates and infected overnight with 500 μL of filtered viral supernatant containing polybrene at a final concentration of 8 μg/mL. Cells were selected at 48 h post-transfection with 1 μg/mL puromycin and expanded into 10 cm tissue-culture treated dishes. Puromycin treatment was withheld once control cells had died. Experiments were performed without puromycin present using pooled populations of transduced cells. A549 and PANC-1 stably expressing mCherry-EGFP-LC3 tandem reporter cells were imaged with the PerkinElmer Opera Phenix or Opera Phenix Plus High Content Imaging Systems and analysed using Columbus software (v2.9.1). […]

[3] = co-treatment with antimycin/oligomycin

SMILES | induction of mitophagy ([1]; compound alone, higher concentrations) | green fluorescent puncta / number of autophagosomes [2] | enhancement of mitophagy [1] | enhancement of induced mitophagy ([1]; co-treatment with CCCP) | enhancement of induced mitophagy [1, 3] | autophagic flux [2] | enhanced number of mCherry puncta [2] | fold increase in number of mCherry puncta [2] | fold increase in number of EGFP puncta [2]
O=C(Nc1ccc(F)cc1F)[C@H](NC(=S)Nc1cc(C(F)(F)F)cc(C(F)(F)F)c1)c1ccccc1 [BL-918, reference compound] | induction of mitophagy only at higher concentrations | mild increase in autophagosome number |  |  |  |  |  |  | 
O=C(Nc1cc(C(F)(F)F)cc(C(F)(F)F)c1)N[C@@H](C(=O)Nc1ccc(F)cc1F)c1ccc(OCc2cn(CCOCCOCCNC(=O)C(=O)c3c(-c4ccccc4)[nH]c4ccccc34)nn2)cc1 [NZ-65, (R)-2-(3-(3,5-bis(trifluoromethyl)phenyl)ureido)-N-(2,4-difluorophenyl)-2-(4-((1-(2-(2-(2-(2-oxo-2-(2-phenyl-1H-indol-3-yl)acetamido)ethoxy)ethoxy)ethyl)-1H-1,2,3-triazol-4-yl)methoxy)phenyl) acetamide] |  |  | restricts enhancement of mitophagy | remarkably strong increases in mitophagy | remarkably strong increases in mitophagy | did not block autophagic flux | reversed | 1.3 fold | 1.5 fold
O=C(Nc1cc(C(F)(F)F)cc(C(F)(F)F)c1)N[C@@H](C(=O)Nc1ccc(F)cc1F)c1ccc(OCc2cn(CCCCCCNC(=O)C(=O)c3c(-c4ccccc4)[nH]c4ccccc34)nn2)cc1 [NZ-66, (R)-2-(3-(3,5-bis(trifluoromethyl)phenyl)ureido)-N-(2,4-difluorophenyl)-2-(4-((1-(6-(2-oxo-2-(2-phenyl-1H-indol-3-yl)acetamido)hexyl)-1H-1,2,3-triazol-4-yl)methoxy)phenyl) acetamide] |  |  | restricts enhancement of mitophagy | remarkably strong increases in mitophagy | remarkably strong increases in mitophagy | did not block autophagic flux | reversed | 1.3 fold | 1.5 fold
